Reference: paper PMC11721939, “Novel tetrahydronaphthalen-1-yl-phenethyl ureas: synthesis and dual antibacterial-anticancer activities” (Journal of Enzyme Inhibition and Medicinal Chemistry, 2023)
Converted amounts (≈) assume the structure as drawn. Like-named read-outs stand apart in the source and are kept apart here.

Experiments:
[1] = system: HeLa cells; settings: cited from earlier work
[2] = system: SH-SY5Y cells; settings: cited from earlier work
[3] = WST-8 cytotoxicity assay; format: cell-based; settings: human, PCS-201-012 healthy primary dermal fibroblast cells, PCS-201-012 healthy fibroblast cells, WST-8, n = 4, read-out: Cytotoxic activity IC50
Protocol: (§1) The cells in culture were frequently sub-cultured, about 2–3 times weekly, until they reached a confluence of 80–90%. The experiments were organised into seven cell groups as follows: group I served as the control, while groups II through VII were pre-treated with varying dosages of the synthesised ureas (ranging from 12.5 µM to 500 µM). The cytotoxic potential of these ureas was assessed in vitro using the Cell Viability Detection Kit-8 (CVDK-8, Ecotech Biotechnology, Erzurum, Turkey), a method based on WST-8 quantification for human primary dermal fibroblasts and cervical cancer cells. Healthy fibroblast, HeLa, and SH-SY5Y cells were allocated in 96-well plates, with each well containing 5 × 10^3 cells in 100 µL of DMEM:F12 (supplemented with 1% penicillin/streptomycin and 10% FBS). After an overnight growth, these cells were exposed to specified concentrations of the synthesised ureas for a duration of 48 h at 37 °C in a 5% CO2 atmosphere. Cisplatin acted as the positive control with concentration gradients of 0–250 µM for HeLa cells and 0–20 µM for the SH-SY5Y cells. Post incubation, in sterile, dimly lit conditions, 10% WST-8 solution was added to every well and further incubated at 37 °C within 5% CO2 for another 3–4 h. The optical density of the 96-well plate was gauged at a 450 nm wavelength using a spectrophotometer (BioTek, EPOCH, Santa Clara, CA). The control group’s main purpose was to measure the absorbance of just the cells and the growth medium.

[4] = system: SH-SY5Y cells; experiment: WST-8 cytotoxicity assay; format: cell-based, human; settings: for IC50: SH-SY5Y, 48 h, WST-8, n = 4, read-out: Cytotoxic activity IC50; for SI value (SH-SY5Y cells): IC50 PCS-201-012 fibroblasts / IC50 SH-SY5Y, n = 4
Protocol: as §1

[5] = system: HeLa cells; experiment: WST-8 cytotoxicity assay; format: cell-based, human; settings: for IC50: Homo sapiens, HeLa cells, 48 h, WST-8, n = 4, read-out: Cytotoxic activity IC50; for SI value (HeLa cells): IC50 PCS-201-012 fibroblasts / IC50 HeLa, n = 4
Protocol: as §1

[6] = system: Acinetobacter baumannii ATCC 1605; experiment: Disc diffusion method; format: cell-based; settings: read-out: Disc diffusion test, inhibitory zone diameter
Protocol: (§2) The bacteria employed for evaluation included Acinetobacter baumannii ATCC 1605, Enterococcus faecalis ATCC 49452, Pseudomonas aeruginosa ATCC 9027, and Staphylococcus aureus MRSA ATCC 43300. These strains were sourced from the Molecular Biology and Genetics Laboratory at Erzurum Technical University. They were immersed in Mueller-Hinton Broth (MHB) and then incubated at a temperature of 37 °C for a duration of 16–24 h.
(§3) Bacteria were adjusted to a McFarland standardisation of 0.5, equivalent to a cell density of 1.5 × 10^8/ml, and were then introduced into MHB. Subsequently, a 100 μl volume of this bacterial mixture was spread onto Mueller-Hinton agar plates. Sterile empty discs were then treated with the formulated ureas at concentrations of 1000, 500, and 250 µM. Oflaxin ([…]) and netilmicin ([…]) were used as positive controls, while DMSO served as the negative control. The plates were then placed in an incubator at 37 °C for a period ranging from 24 to 72 h, depending on the optimal conditions. Post incubation, the diameter of the inhibition zones was gauged to determine the antibacterial efficacy. This entire process was replicated three times.

[7] = system: Pseudomonas aeruginosa ATCC 9027; experiment: Disc diffusion method; format: cell-based; settings: read-out: Disc diffusion test, inhibitory zone diameter; for zone of inhibition at 250 µM: ATCC9027, 250 µM; for zone of inhibition at 500 µM: ATCC9027, 500 µM; for zone of inhibition at 1000 µM: ATCC9027, 1000 µM
Protocol: as §2, §3

[8] = system: Staphylococcus aureus MRSA ATCC 43300; experiment: Disc diffusion method; format: cell-based; settings: Staphylococcus aureus, read-out: Disc diffusion test, inhibitory zone diameter
Protocol: as §2, §3

[9] = system: Enterococcus faecalis ATCC 49452; experiment: Disc diffusion method; format: cell-based; settings: read-out: Disc diffusion test, inhibitory zone diameter
Protocol: as §2, §3

[10] = system: Acinetobacter baumannii ATCC 1605; experiment: Micro-well dilution assay (MIC); format: cell-based; settings: ATCC1605
Protocol: as §2
(§4) The synthesised ureas’ minimum inhibitory concentrations (MICs) against the bacterial samples were ascertained using the microdilution broth technique. Utilising a method of twofold serial dilutions, the ureas were diluted to concentrations spanning from […]. The bacterial turbidity was set to match the 0.5 McFarland standard. In the 96-well plates, each well received 100 μl of MHB and 5 μl of the bacteria being tested. For the negative control, 195 μl of MHB and 5 μl of the bacterial sample were added. The plate was then covered with a sterile seal and allowed to incubate for 24 h at a temperature of 37 °C. Post incubation, the growth of the bacteria was assessed at 600 nm using the Fluoroskan Ascent® FL. The MIC represented the smallest amount of the chemical that effectively halted bacterial growth. This procedure was conducted three times.

[11] = system: Pseudomonas aeruginosa ATCC 9027; experiment: Micro-well dilution assay (MIC); format: cell-based; settings: ATCC9027
Protocol: as §2, §4

[12] = system: Staphylococcus aureus MRSA ATCC 43300; experiment: Micro-well dilution assay (MIC); format: cell-based
Protocol: as §2, §4

[13] = system: Enterococcus faecalis ATCC 49452; experiment: Micro-well dilution assay (MIC); format: cell-based; settings: ATCC49452
Protocol: as §2, §4

[14] = system: PCS-201-012 cells; set-up: method as in PMID 27488500; settings: fibroblast cells (PCS-201-012 column), cisplatin; read-out: Cytotoxic activity IC50; cited from earlier work
[15] = read-out: Cytotoxic activity IC50, melphalan control
[16] = read-out: Cytotoxic activity IC50, cisplatin positive control

Row | Structure (SMILES) | IC50 at 48 h [3] [µM] | IC50 ([4]; Homo sapiens) [µM] | SI value (SH-SY5Y cells) [4] | IC50 [5] [µM] | SI value (HeLa cells) [5] | melting point [°C] | zone of inhibition at 250 µM [7] [mm] | zone of inhibition at 500 µM [7] [mm] | zone of inhibition at 1000 µM [7] [mm] | zone of inhibition at 500 µM [8] [mm] | zone of inhibition at 1000 µM [8] [mm] | MIC [11] [µM] | MIC [12] [µM] | further results
1 | N[C@@H](Cc1ccc(N(CCCl)CCCl)cc1)C(=O)O [Melphalan, melphalan] |  |  |  |  |  |  |  |  |  |  |  |  |  | IC50 [1, 15]: 61 µM; IC50 [2, 15]: 2.2 µM
2 | COc1ccc(CCNC(=O)NC2CCCc3c(OC)cccc32)cc1 (centres unmarked) [Compound 18, 1-(5-Methoxy-1,2,3,4-tetrahydronaphthalen-1-yl)-3-(4-methoxyphenethyl)urea] | 374 | 10.2 | 36.72 | 364 | 1.02 | 150 to 152 | 9 | 10 | 15 | 12 | 15 | 3.9 (≈ 1.38 µg/mL) | 3.9 (≈ 1.38 µg/mL) | zone of inhibition at 250 µM ([6]; ATCC1605, 250 µM): 6 mm; zone of inhibition at 500 µM ([6]; ATCC1605, 500 µM): 10 mm; zone of inhibition at 1000 µM ([6]; ATCC1605, 1000 µM): 16 mm; zone of inhibition at 250 µM [8]: 5 mm; zone of inhibition at 250 µM ([9]; ATCC49452, 250 µM): 5 mm; zone of inhibition at 500 µM ([9]; ATCC49452, 500 µM): 7 mm; zone of inhibition at 1000 µM ([9]; ATCC49452, 1000 µM): 13 mm; MIC [10]: 7.81 µM (≈ 2.77 µg/mL); MIC [13]: 0.97 µM (≈ 0.344 µg/mL)
3 | COc1ccccc1CCNC(=O)NC1CCCc2c(OC)cccc21 (centres unmarked) [Compound 15, 1-(5-Methoxy-1,2,3,4-tetrahydronaphthalen-1-yl)-3-(2-methoxyphenethyl)urea] | 226 | 8.93 | 25.26 | 142 | 1.58 | 174 to 176 | 5 | 5 | 5 | 5 | 6 | 15.6 (≈ 5.54 µg/mL) | 15.6 (≈ 5.54 µg/mL) | IC50 [4]: 8.9 µM
4 | N.N.[Cl][Pt][Cl] [Cisplatin, cis-diammineplatinum(II) dichloride] |  |  |  |  |  |  |  |  |  |  |  |  |  | IC50 [1, 16]: > 50 µM; IC50 [14]: > 100 µM; IC50 [2, 16]: 10 µM
